What was measured:
[1] = target: T1, 5-hydroxytryptamine receptor 1A (Rattus norvegicus, UniProt P19327); assay: Binding affinity against 5-hydroxytryptamine 1A receptor in rat hippocampus membranes using [3H]8-OH-DPAT as radioligand; assay type: cell membranes, Membrane
T1 sequence (P19327 whole entry): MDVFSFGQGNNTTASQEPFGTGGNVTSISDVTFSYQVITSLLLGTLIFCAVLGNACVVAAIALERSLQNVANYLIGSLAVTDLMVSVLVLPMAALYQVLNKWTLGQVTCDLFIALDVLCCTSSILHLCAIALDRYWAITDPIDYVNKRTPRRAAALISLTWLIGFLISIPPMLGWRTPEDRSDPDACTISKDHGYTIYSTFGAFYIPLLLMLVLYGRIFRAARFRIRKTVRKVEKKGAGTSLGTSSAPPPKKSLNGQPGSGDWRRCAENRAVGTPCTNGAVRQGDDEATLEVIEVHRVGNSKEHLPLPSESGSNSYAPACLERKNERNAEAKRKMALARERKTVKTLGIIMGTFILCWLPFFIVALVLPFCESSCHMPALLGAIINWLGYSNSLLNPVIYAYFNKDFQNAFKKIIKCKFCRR

[2] = target: Serotonin 2 (5-HT2) receptor (Rattus norvegicus, UniProt P30994+P08909+P14842); assay: Binding affinity against 5-hydroxytryptamine 2 receptor in rat brain using [3H]ketanserin as radioligand; assay type: tissue-based
[3] = target: T2, Adrenergic receptor alpha-2 (Rattus norvegicus, UniProt P22086+P19328+P22909); assay: Binding affinity against Alpha-2 adrenergic receptor in rat brain membrane using [3H]yohimbine as radioligand; assay type: cell membranes
T2 sequence (P22086 whole entry): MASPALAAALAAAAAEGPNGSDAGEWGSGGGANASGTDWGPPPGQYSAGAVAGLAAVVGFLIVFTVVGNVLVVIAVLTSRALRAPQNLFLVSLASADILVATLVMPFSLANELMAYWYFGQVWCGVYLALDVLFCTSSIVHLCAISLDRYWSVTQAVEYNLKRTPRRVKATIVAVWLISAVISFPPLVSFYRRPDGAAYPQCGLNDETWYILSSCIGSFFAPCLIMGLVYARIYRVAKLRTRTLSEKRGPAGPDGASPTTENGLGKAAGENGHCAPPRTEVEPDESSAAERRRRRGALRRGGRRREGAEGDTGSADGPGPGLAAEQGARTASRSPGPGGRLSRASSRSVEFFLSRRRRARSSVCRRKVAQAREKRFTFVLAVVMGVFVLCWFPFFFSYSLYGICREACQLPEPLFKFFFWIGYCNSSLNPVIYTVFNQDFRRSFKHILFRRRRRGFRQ
T2 sequence (P19328 whole entry): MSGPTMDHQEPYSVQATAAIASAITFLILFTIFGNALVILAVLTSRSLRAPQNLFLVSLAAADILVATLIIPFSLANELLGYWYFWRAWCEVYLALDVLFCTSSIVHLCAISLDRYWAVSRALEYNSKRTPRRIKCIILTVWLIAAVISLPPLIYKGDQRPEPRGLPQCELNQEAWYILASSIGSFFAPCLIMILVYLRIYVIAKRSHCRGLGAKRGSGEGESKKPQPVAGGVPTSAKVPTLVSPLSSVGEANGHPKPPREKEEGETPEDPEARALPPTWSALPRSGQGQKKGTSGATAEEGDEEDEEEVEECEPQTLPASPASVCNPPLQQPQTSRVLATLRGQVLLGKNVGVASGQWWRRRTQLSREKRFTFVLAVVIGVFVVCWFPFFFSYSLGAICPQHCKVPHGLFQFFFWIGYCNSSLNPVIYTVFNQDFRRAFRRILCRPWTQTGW
T2 sequence (P22909 whole entry): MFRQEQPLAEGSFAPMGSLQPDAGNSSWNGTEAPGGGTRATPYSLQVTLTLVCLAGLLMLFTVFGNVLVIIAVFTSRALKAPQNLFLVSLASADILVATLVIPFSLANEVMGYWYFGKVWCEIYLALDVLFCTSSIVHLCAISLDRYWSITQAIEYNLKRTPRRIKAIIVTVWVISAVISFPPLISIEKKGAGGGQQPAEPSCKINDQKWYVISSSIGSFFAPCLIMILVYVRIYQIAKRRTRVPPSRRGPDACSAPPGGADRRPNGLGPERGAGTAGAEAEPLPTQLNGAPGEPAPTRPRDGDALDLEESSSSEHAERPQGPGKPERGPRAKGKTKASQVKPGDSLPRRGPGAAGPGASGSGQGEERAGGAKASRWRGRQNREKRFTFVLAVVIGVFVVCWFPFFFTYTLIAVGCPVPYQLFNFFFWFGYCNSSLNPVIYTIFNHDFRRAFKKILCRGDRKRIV

[4] = target: T3, Adrenergic receptor alpha-1 (Rattus norvegicus, UniProt P15823+P23944+P43140); assay: Binding affinity against Alpha-1 adrenergic receptor in rat brain membrane using [3H]prazosin as radioligand; assay type: cell membranes
T3 sequence (P15823 whole entry): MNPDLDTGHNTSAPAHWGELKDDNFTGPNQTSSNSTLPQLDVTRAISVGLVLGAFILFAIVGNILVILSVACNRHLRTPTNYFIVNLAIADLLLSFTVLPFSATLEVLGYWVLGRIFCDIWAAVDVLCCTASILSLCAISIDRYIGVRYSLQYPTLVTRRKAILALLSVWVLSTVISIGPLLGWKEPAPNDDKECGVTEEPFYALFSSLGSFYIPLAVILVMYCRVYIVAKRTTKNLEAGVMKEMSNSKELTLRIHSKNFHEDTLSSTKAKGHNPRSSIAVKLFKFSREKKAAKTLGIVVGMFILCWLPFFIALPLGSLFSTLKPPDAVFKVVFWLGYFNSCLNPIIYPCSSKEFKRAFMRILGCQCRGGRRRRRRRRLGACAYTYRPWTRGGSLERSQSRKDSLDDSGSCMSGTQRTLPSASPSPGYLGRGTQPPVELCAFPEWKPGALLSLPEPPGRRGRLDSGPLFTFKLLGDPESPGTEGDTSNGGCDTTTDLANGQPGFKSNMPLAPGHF
T3 sequence (P23944 whole entry): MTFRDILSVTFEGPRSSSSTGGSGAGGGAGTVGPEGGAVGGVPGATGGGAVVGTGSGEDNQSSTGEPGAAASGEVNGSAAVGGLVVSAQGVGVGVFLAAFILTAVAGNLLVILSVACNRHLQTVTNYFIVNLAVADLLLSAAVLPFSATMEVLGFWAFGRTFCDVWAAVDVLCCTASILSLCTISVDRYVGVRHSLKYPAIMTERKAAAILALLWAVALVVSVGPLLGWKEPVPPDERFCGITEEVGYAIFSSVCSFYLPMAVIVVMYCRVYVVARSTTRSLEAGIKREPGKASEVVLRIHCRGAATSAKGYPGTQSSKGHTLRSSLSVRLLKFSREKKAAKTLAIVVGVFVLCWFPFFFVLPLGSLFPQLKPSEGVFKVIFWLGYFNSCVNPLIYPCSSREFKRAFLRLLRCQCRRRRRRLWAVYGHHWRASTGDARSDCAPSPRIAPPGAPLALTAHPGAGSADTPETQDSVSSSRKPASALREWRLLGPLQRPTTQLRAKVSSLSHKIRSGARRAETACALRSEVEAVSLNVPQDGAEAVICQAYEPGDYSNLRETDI
T3 sequence (P43140 whole entry): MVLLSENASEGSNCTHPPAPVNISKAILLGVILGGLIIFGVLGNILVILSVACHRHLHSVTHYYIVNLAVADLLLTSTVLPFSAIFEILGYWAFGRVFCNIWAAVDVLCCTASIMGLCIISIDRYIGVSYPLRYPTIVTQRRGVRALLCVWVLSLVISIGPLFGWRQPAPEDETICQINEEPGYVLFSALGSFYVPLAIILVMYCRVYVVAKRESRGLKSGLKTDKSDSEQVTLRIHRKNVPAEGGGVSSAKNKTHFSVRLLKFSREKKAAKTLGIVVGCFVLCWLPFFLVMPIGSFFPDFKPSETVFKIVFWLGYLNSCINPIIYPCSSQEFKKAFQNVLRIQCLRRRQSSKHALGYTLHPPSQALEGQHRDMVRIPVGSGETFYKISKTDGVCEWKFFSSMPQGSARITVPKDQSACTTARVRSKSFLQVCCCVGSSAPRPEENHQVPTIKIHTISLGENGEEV

[5] = target: D(2) dopamine receptor (Rattus norvegicus, UniProt P61169); assay: Compound was evaluated for their affinity against Dopamine receptor D2 by displacing [3H]spiperone in rat striatal membrane; assay type: cell membranes, Striatum
Sequence of D(2) dopamine receptor (P61169 whole entry): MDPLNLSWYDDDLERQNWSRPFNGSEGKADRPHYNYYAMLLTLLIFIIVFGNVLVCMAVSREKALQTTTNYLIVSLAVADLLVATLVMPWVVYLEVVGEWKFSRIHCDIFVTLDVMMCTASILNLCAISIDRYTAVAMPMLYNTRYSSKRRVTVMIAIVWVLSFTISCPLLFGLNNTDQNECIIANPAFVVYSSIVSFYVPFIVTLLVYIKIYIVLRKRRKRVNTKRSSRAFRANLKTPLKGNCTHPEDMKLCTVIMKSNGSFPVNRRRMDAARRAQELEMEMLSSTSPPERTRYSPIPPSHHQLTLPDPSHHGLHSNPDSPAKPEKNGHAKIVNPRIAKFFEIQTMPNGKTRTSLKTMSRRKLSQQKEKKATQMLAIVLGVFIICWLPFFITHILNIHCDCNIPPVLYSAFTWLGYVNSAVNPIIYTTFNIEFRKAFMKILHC

SMILES: COc1ccccc1N1CCN(CCNC2CCCc3c(OC)cccc32)CC1 (stereo not given)
- IC50 [1]: 7.7 nM
- IC50 [2]: 2580 nM
- IC50 [3]: 280 nM
- IC50 [4]: 220 nM
- IC50 [5]: 380 nM

From ChEMBL document CHEMBL1129269, “1-aryl-4-[(1-tetralinyl)alkyl]piperazines: alkylamido and alkylamino derivatives. Synthesis, 5-HT1A receptor affinity, and selectivity. 3” (J Med Chem, 1996)
